Reference: the supplement of paper PMC8671470

Key:
Details in all cases: 72 h
[1] = test system: BV-173; assay: cell viability (% survival relative to DMSO control, bortezomib = 0%); higher = less cytotoxic
Outline: (§1)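 Percent survival is reported as the mean of duplicate wells. Cells from 10 AML and 5 CML lines were plated in 384-well plates containing compounds at 1, 10, 100, 1000 or 10000 nM and kept for 72 h at 37 °C in 5% CO2. Readout used CellTiter-Glo luminescence, scaled so that vehicle equals 100% and a 10 µM positive control equals 0%.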

[2] = test system: NOMO-1; assay: as above
Outline: as §1

[3] = test system: KG-1; assay: as above
Outline: as §1

[4] = test system: KU-812; assay: as above
Outline: as §1

[5] = test system: LAMA-84; assay: as above
Outline: as §1

[6] = test system: HEL; assay: as above
Outline: as §1

[7] = test system: SHI-1; assay: as above
Outline: as §1

[8] = test system: K-562; assay: as above
Outline: as §1

[9] = test system: MOLM-13; assay: as above
Outline: as §1

[10] = test system: KCL-22; assay: as above
Outline: as §1

[11] = test system: THP-1; assay: as above
Outline: as §1

[12] = test system: HL-60; assay: as above
Outline: as §1

[13] = test system: ML-2; assay: as above
Outline: as §1

[14] = test system: MV4-11; assay: as above
Outline: as §1

[15] = test system: Mono-Mac-6; assay: as above
Outline: as §1

[16] = test system: BV-173
Outline: (§2)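 Fifteen myeloid leukaemia lines in RPMI 1640 were treated for 72 h at 37 °C and 5% CO2 with five tenfold doses from 1 to 10,000 nM, in duplicate. ATP luminescence was normalised to vehicle and to a positive control at 10 µM, then fitted with a four-parameter log-logistic model. The IC50 came from these fits.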

[17] = test system: NOMO-1
Outline: as §2

[18] = test system: KG-1
Outline: as §2

[19] = test system: KU-812
Outline: as §2

[20] = test system: LAMA-84
Outline: as §2

[21] = test system: HEL
Outline: as §2

[22] = test system: SHI-1
Outline: as §2

[23] = test system: K-562
Outline: as §2

[24] = test system: MOLM-13
Outline: as §2

[25] = test system: KCL-22
Outline: as §2

[26] = test system: THP-1
Outline: as §2

[27] = test system: HL-60
Outline: as §2

[28] = test system: ML-2
Outline: as §2

[29] = test system: MV4-11
Outline: as §2

[30] = test system: Mono-Mac-6
Outline: as §2

CCCc1nc(C)c2c(=O)nc(-c3cc(S(=O)(=O)N4CCN(CC)CC4)ccc3OCC)[nH]n12 [Vardenafil]
cell viability [%]
Details	1 nM	10 nM	100 nM	1000 nM	10000 nM
[1]	98.3	80.3	101	108	82.8
[2]	94.4	84.3	96.1	101	93.1
[3]	95.4	95.9	92.8	110	107
[4]	95.4	106	92	102	102
[5]	92.6	95.2	101	92.2	97.8
[6]	91.9	111	94.4	102	93.7
[7]	102	115	89.8	99.7	101
[8]	109	107	93.8	90.8	92.6
[9]	107	123	71.2	91.2	94.5
[10]	105	110	98.3	95.8	94.6
[11]	93.8	85	107	108	96.5
[12]	107	115	89.2	112	102
[13]	98.8	96.3	88	97.4	110
[14]	97.9	87.5	85.2	97.7	93.3
[15]	102	83	106	95.1	102

Details	IC50 (cell viability) [µM]
[16]	> 10
[17]	> 10
[18]	> 10
[19]	> 10
[20]	> 10
[21]	> 10
[22]	> 10
[23]	> 10
[24]	> 10
[25]	> 10
[26]	> 10
[27]	> 10
[28]	> 10
[29]	> 10
[30]	> 10

COC(=O)c1cc2c(C(F)(F)F)cc(-c3ccccc3)cc2n1O [NHI-2]
cell viability [%]
Details	1 nM	10 nM	100 nM	1000 nM	10000 nM
[1]	100	100	101	73.7	94.2
[2]	101	102	92.2	97.4	102
[3]	97.6	90.8	100	85.9	97.7
[4]	97.6	96.9	97.7	96.8	84.3
[5]	91.9	95	93.9	87.5	76.4
[6]	83.5	91.9	90.4	89.4	92.5
[7]	96.6	104	97.3	93.6	96.9
[8]	98.8	91.1	93.8	87.4	85.4
[9]	87	80.6	91.3	95.6	105
[10]	91.9	88.8	104	110	92.7
[11]	97.4	99.3	104	98.9	108
[12]	98.5	90.3	95.2	97.2	96.8
[13]	94.8	95.1	109	102	107
[14]	99.7	91.1	91.2	85.3	94.3
[15]	93.6	102	114	89.5	103

Details	IC50 (cell viability) [µM]
[16]	> 10
[17]	> 10
[18]	> 10
[19]	> 10
[20]	> 10
[21]	> 10
[22]	> 10
[23]	> 10
[24]	> 10
[25]	> 10
[26]	> 10
[27]	> 10
[28]	> 10
[29]	> 10
[30]	> 10

Cc1c(Cl)cccc1S(=O)(=O)Nc1nc(CC(=O)N2CCN(C)CC2)cs1 [BVT-2733]
cell viability [%]
Details	1 nM	10 nM	100 nM	1000 nM	10000 nM
[1]	102	103	94.8	93.3	88.5
[2]	105	97.6	99.1	99.1	95.4
[3]	102	92.8	94.2	98.2	105
[4]	107	95.4	96.6	95.9	86.4
[5]	101	93.4	96.9	105	99.9
[6]	106	82.9	96.3	108	101
[7]	110	101	105	111	104
[8]	98	83.5	87.1	104	102
[9]	99.7	89.1	97.8	110	96.4
[10]	114	83.6	97.9	98.2	98.1
[11]	107	91	100	97	92.9
[12]	99.9	93.4	78.9	122	93.5
[13]	108	91.1	92.6	108	99.6
[14]	107	95.1	88.3	108	112
[15]	107	88	107	114	99.6

Details	IC50 (cell viability) [µM]
[16]	> 10
[17]	> 10
[18]	> 10
[19]	> 10
[20]	> 10
[21]	> 10
[22]	> 10
[23]	> 10
[24]	> 10
[25]	> 10
[26]	> 10
[27]	> 10
[28]	> 10
[29]	> 10
[30]	> 10
